Laboratory results: patent publication US7651695B2, “Medicated stents for the treatment of vascular disease” (Advanced Cardiovascular Systems, Inc., priority 2001, dated 2010)
Several values for one entry are separate records, joined by “and”; a condition that tells them apart may be missing. Equal entries are not always repeated. Where two headings read alike, the source gives them in different places. Starred links: 1 amine or outer side, 2 acyl side, 3 side chain; linkers in the order of their positions; H or OH if unused. Positions of bridges follow the written chain, without caps; N, C: chain ends. Non-standard residues stand in square brackets, D forms with d. Residues, ends and D or L forms follow the SMILES beside them. Chains are numbered I, II in the order given. Actinocin(9to1) = Cc1c2oc3c(C)ccc(C(=O)[*:1])c3nc-2c(C(=O)[*:2])c(N)c1=O; NMeV = CN[C@H](C(=O)O)C(C)C; Sar = CNCC(=O)O

Assays:
[1] = test system: Medial smooth muscle cells (SMC) from rat aorta; test: Inhibition of SMC proliferation (thymidine incorporation); format: cell-based; settings: read-out: IC50 (concentration at which 50% of the cells stop proliferating)
Method: Medial smooth muscle cells (SMC) were isolated from rat aorta and cultured according to explant methods known to one of ordinary skill in the art. Cells were harvested via trypsinization and subcultivated. Cells were identified as vascular SMC through their characteristic hill-and-valley growth pattern as well as indirect immunofluorescence with monoclonal anti SMC α-actin. Studies were performed with cells at passage 3-4. SMC monlayers were established on 24 well culture dishes, scrape wounded and treated with actinomycin D, mytomycin and docetaxel. The cells were exposed to the drug solution of different concentrations for 2 hours and then washed with buffered saline solution. The proliferation of the cells was quantified by standard technique of thymidine incorporation.
The IC50 (concentration at which 50% of the cells stop proliferating) of actinomycin D was 10^−9M as compared to 5×10^−5M for mitomycin and 10^−6M for docetaxel.

[2] = test system: neointimal formation in the coronary arteries; test: Porcine coronary stent injury model, drug delivered with microporous balloon catheter; format: in vivo, Domestic swine
Method: Porcine coronary models were used to assess the degree of the inhibition of neointimal formation in the coronary arteries of a porcine stent injury model by Actinomycin D, delivered with a microporous balloon catheter (1×10^6 pores/cm^2 with size ranging from 0.2-0.8 micron).
The preclinical animal testing was performed in accordance with the NIH Guide for Care and Use of Laboratory Animals. Domestic swine were utilized to evaluate effect of the drug on the inhibition of the neointimal formation. Each testing procedure, excluding the angiographic analysis at the follow-up endpoints, was conducted using sterile techniques. During the study procedure, the activated clotting time (ACT) was monitored regularly to ensure appropriate anticoagulation. Base line blood samples were collected for each animal before initiation of the procedure. Quantitative coronary angiographic analysis (QCA) and intravascular ultrasound (IVUS) analysis was used for vessel size assessment.
The vessels at the sites of the delivery were denuded by inflation of the PTCA balloons to 1:1 balloon to artery ratio and moving the balloons back and forth 5 times. Actinomycin D was delivered to the denuded sites at 3.5 atm (3.61 kg/sq. cm) for 2 minutes using the microporous balloon catheters before stent deployment. The average volume of delivery was about 3.3+/−1.2 ml. Following drug delivery, stents were deployed at the delivery site such that final stent to artery ratio was 1.1:1.
QCA and IVUS analyses were used for stent deployment guidance. Pre-stenting IVUS measurements of the lumen size at the targeted vessel sites were performed for determination of the balloon (size) inflation pressure. Quantitative analysis of the stented coronary arteries to compare pre-stenting, post-stenting, follow-up minimal luminal diameters, stent recoil, and balloon/stent to artery ratio were performed. Following stent implantation and final angiogram, all devices were withdrawn and the wounds closed; the animals were allowed to recover from anesthesia as managed by the attending veterinarian or animal care professionals at the research center.
Upon return to the research laboratory at the 28-day endpoint, angiographic assessments were performed. Coronary artery blood flow was assessed and the stented vessels were evaluated to determine minimal lumen diameter. The animals were euthanized following this procedure at the endpoint. Following euthanasia, the hearts were pressure perfusion fixed with formalin and prepared for histological analysis, encompassing light microscopy, and morphometry. Morphometric analysis of the stented arteries included assessment of the position of the stent struts and determination of vessel/lumen areas, percent (%) stenosis, injury scores, intimal and medial areas and intima/media ratios. Percent stenosis is quantitated by the following equation: 100(IEL area−lumen area)/IEL area where IEL is the internal elastic lamia.
The control group of animals received delivery of water instead of the drug. The test group of animals received actinomycin D in two different concentration of 10^−5M and 10^−4M. […] FIGS. 2A and 2B illustrate sample pictures of the histology slides of the coronary vessels from the control and the Dose 1 group, respectively.

[3] = test system: porcine coronary arteries (EEL/IEL area); test: Positive remodeling by stents coated with EVAL impregnated with actinomycin D in porcine coronary arteries; format: in vivo
From the text: “Positive remodeling” is generally defined as the ability of the vessel walls to structurally adapt, by increasing in lumen size, to chronic stimuli. A positively remodeled lumen wall has a greater diameter or size as compared to a lumen wall which has not been subjected to the remodeling effect. Accordingly, the flow of blood through the remodeled site is increased—flow which would have otherwise been reduced because of, for example, the presence of plaque build-up or migration and proliferation of cells. The index of remodeling is defined by the ratio of the area circumscribed by the external elastic lamia (EEL) of the lesion site to the area circumscribed by the EEL of a reference site. As a result of the positive remodeling of the EEL, the internal elastic lamina (IEL), in response, can also increases in area or diameter.
In vivo data is provided illustrated positive remodeling caused by the application of actinomycin D. Stents coated with EVAL impregnated with actinomycin D and a control group of stents coated with EVAL free from actinomycin D were implanted in porcine coronary arteries. The animals were sacrificed at the end of 28 days. […] The index of remodeling was 1.076 (8.54/7.94).
FIGS. 3A and 3B illustrate sample pictures of the histology slides of the coronary vessels from the control group 64 RCA ([…]) and the actinomycin D loaded stent group 68 LAD (Left Anterior Descending), respectively. The stent used was an Advanced Cardiovascular Systems Multi-Link Duet™ (stainless steel). As is illustrated by FIG. 3B, the positive remodeling of IEL 10, caused by the application of actinomycin D, creates a gap between stent struts 12 and IEL 10. Thrombus deposites, illustrated by reference number 14, are formed in the gap over time. The use of a self-expandable stent eliminates the formation of the gap as the stent self-expands in response to the positive remodeling of IEL. Thrombus deposits can be, accordingly, eliminated.

[4] = Dose 1, 1E−05 M, n = 30, 28-day endpoint
[5] = Dose 2, 1E−04 M, n = 21, 28-day endpoint
[6] = average of 24 vessel sections, 28 days
[7] = one value per vessel section (ID # in the cell to the left), 28 days
[8] = rat aortic SMC, scrape wounded, 2 hours drug exposure, thymidine incorporation

Structure (SMILES) | IC50 ([1]; Rattus norvegicus, 2 h) | Percent Diameter Stenosis, angiographic data (QCA) ([2]; Dose 1, 1E−05 M, n = 10, 28-day endpoint) | Percent Stenosis (IEL area-lumen area)/IEL area, histomorphometric data [2, 4] | Residual Lumen (Lumen area)/IEL area, histomorphometric data [2, 4] | Percent Diameter Stenosis, angiographic data (QCA) ([2]; Dose 2, 1E−04 M, n = 7, 28-day endpoint) | Percent Stenosis (IEL area-lumen area)/IEL area, histomorphometric data [2, 5] | Residual Lumen (Lumen area)/IEL area, histomorphometric data [2, 5] | EEL area compared with control vessels ([3]; 28 days, actinomycin D-loaded vessels vs control vessels) | AVG % EEL growth ([3]; ActD vs EVAL) | AVG % IEL growth ([3]; ActD vs EVAL) | index of remodeling ([3]; EEL area ratio 8.54/7.94, actinomycin D-loaded vs EVAL control) | EEL Area, AVG [3, 6] | IEL Area, AVG [3, 6] | EEL Area, individual vessel section [3, 7] | IEL Area, individual vessel section [3, 7] | IC50 [1, 8]
Cc1c2oc3c(C)ccc(C(=O)N[C@@H]4C(=O)N[C@H](C(C)C)C(=O)N5CCC[C@H]5C(=O)N(C)CC(=O)N(C)[C@@H](C(C)C)C(=O)O[C@@H]4C)c3nc-2c(C(=O)N[C@@H]2C(=O)N[C@H](C(C)C)C(=O)N3CCC[C@H]3C(=O)N(C)CC(=O)N(C)[C@@H](C(C)C)C(=O)O[C@@H]2C)c(N)c1=O [actinomycin D] (I: T[dV]P[Sar][NMeV] / II: T[dV]P[Sar][NMeV]; ester I:1-I:C, II:1-II:C; linker I:N-II:N via Actinocin(9to1)) | 1 nM | 36.8 +/− 9.7% | 51.8 +/− 13.8% | 0.49 +/− 0.14 | 32.3+/−11.7% | 54.1 +/− 11.7% | 0.46 +/− 0.08 | statistically significantly greater | 7.486% | 13.18% | 1.076 | 8.5425 mm^2 | 7.4727 mm2 | 7.4498 mm^2 and 8.2509 mm^2 and 7.7342 mm^2 and 7.9207 mm^2 and 6.9926 mm^2 and 8.3883 mm^2 and 7.8546 mm^2 and 9.2545 mm^2 and 9.2515 mm^2 and 8.7854 mm^2 and 9.5164 mm^2 and 9.1504 mm^2 and 9.6679 mm^2 and 9.1237 mm^2 and 9.9849 mm^2 and 9.4765 mm^2 and 7.4424 mm^2 and 9.1462 mm^2 and 8.9504 mm^2 and 8.9117 mm^2 and 8.7533 mm^2 and 7.3249 mm^2 and 7.1061 mm^2 and 8.5830 mm^2 | 6.3785 mm2 and 7.5206 mm2 and 6.9992 mm2 and 6.9632 mm2 and 6.0418 mm2 and 7.4794 mm2 and 6.2324 mm2 and 8.3785 mm2 and 8.5819 mm2 and 8.0964 mm2 and 8.6879 mm2 and 8.0914 mm2 and 8.7181 mm2 and 8.0273 mm2 and 8.5222 mm2 and 8.3796 mm2 and 6.4219 mm2 and 7.7757 mm2 and 7.5392 mm2 and 7.6573 mm2 and 6.9749 mm2 and 6.2815 mm2 and 5.9760 mm2 and 7.6195 mm2 | –
CC(=O)O[C@@]12CO[C@@H]1C[C@H](O)[C@@]1(C)C(=O)[C@H](O)C3=C(C)[C@@H](OC(=O)[C@H](O)[C@@H](NC(=O)OC(C)(C)C)c4ccccc4)C[C@@](O)([C@@H](OC(=O)c4ccccc4)[C@H]21)C3(C)C [docetaxel] | – | – | – | – | – | – | – | – | – | – | – | – | – | – | – | 1000 nM
CO[C@@]12[C@H](COC(N)=O)C3=C(C(=O)C(C)=C(N)C3=O)N1C[C@@H]1N[C@@H]12 [mitomycin] | – | – | – | – | – | – | – | – | – | – | – | – | – | – | – | 50000 nM
